Experimental data taken from article PMC8991199, “Promiscuity mapping of the S100 protein family using a high-throughput holdup assay” (Scientific Reports, 2022).

Legend:
Assay type in all cases: binding
S100A7 = target: T1, S100A7 (Homo sapiens, UniProt P31151); experiment: direct fluorescence polarization (FP), S100A7; conditions: S100A7, 50 nM labeled foldamer, 20 mM HEPES pH 7.5, 150 mM NaCl, 1 mM CaCl2, 0.5 mM TCEP, 0.01% Tween20, quadratic fit, mean ± SEM, three technical repeats, threshold 1 mM
T1 sequence (P31151 1-101): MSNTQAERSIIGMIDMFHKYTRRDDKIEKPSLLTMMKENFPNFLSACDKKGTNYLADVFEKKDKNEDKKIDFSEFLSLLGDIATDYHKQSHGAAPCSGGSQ
Experimental: (§1) HTP (and also low-throughput) measurements generally need to be validated by an orthogonal approach to eliminate experimental artifacts. […] This way, we chose WL, IF, WW, YF, IL, VL, TW, RF, RR, TI, TM, and after resynthesizing with a fluorescent label at the C-terminus (Figs. S15–S26, Table S1), the S100ome was tested against the labeled foldamers by direct fluorescence polarization (FP) (Fig. 3A). In this assay, the association of the fluorescently labeled foldamer and the S100 protein of interest is monitored, through the change in polarization of the emitted light by the fluorophore upon the binding event. In direct FP, the presence of the fluorophore might change the binding affinity of some foldamers. […] Nevertheless, we assumed that the fluorophore would affect all foldamers that target the same binding site to the same degree, because the foldamer scaffold is rigid. Defining the threshold of detection at the dissociation constant of 1 mM, we identified 87 interactions between the selected foldamer fragments and the S100ome out of 220 possible interactions (Table 1, Fig. S4-14).
(§2) Briefly, S100 proteins were cloned into a modified pET15b vector with a TEV protease cleavable N-terminal His6-tag and expressed in Escherichia coli BL21 (DE3) cells, followed by Ni^2+-affinity chromatography. For HU assay, S100 proteins were further purified by either hydrophobic interaction chromatography or ion exchange chromatography without the cleavage of the N-terminal His6-tag applying standard conditions. For direct FP measurements, the N-terminal His6-tag was cleaved, and the S100 proteins were purified by hydrophobic interaction chromatography, ion exchange chromatography or size exclusion chromatography. The quality of the recombinant proteins was checked by SDS-PAGE analysis in all cases. The concentration of the recombinant S100 proteins was determined by UV spectrophotometry using the absorbance of Tyr and Trp residues.
(§3) In direct fluorescence polarization assays, S100 proteins were diluted in a buffer containing 50 nM labeled foldamer, 20 mM HEPES pH 7.5, 150 mM NaCl, 1 mM CaCl2, 0.5 mM TCEP and 0.01% Tween20. The dilution series (50 µl) were divided into three technical repeats and transferred (15 µl) to a 384-well microplate. In competitive fluorescence polarization assays, the buffer applied in direct measurements was supplemented with the S100 protein of interest to reach a saturation of 60–80%. This mixture was titrated with the competitor (i.e. the unlabeled peptide). Fluorescence polarization was measured in 8 different S100 concentrations (one of which contained no S100 protein) on a Synergy H4 plate reader using 485 ± 20 nm and 528 ± 20 nm band-pass filters for excitation and emission, respectively. The Kd values were obtained by fitting the data from the FP measurements with the python-based ProFit software using quadratic and competitive binding equation for direct and competitive FP, respectively. The detection threshold was based on two parameters. First, we rejected all fitted dissociation constants above 1 mM.

S100A2 = S100A2 (Homo sapiens, UniProt P29034); experiment: direct fluorescence polarization (FP), S100A2; conditions: S100A2, 50 nM labeled foldamer, 20 mM HEPES pH 7.5, 150 mM NaCl, 1 mM CaCl2, 0.5 mM TCEP, 0.01% Tween20, quadratic fit, mean ± SEM, three technical repeats, threshold 1 mM
Sequence of S100A2 (P29034 whole entry): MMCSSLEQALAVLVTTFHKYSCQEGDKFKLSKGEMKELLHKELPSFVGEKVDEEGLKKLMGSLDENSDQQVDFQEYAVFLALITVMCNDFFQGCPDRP
Text: (§4) HTP (and also low-throughput) measurements generally need to be validated by an orthogonal approach to eliminate experimental artifacts. […] In this assay, the association of the fluorescently labeled foldamer and the S100 protein of interest is monitored, through the change in polarization of the emitted light by the fluorophore upon the binding event. In direct FP, the presence of the fluorophore might change the binding affinity of some foldamers. […] Nevertheless, we assumed that the fluorophore would affect all foldamers that target the same binding site to the same degree, because the foldamer scaffold is rigid.
as §2, §3

S100A12 = target: T2, S100A12 (Homo sapiens, UniProt P80511); experiment: direct fluorescence polarization (FP), S100A12; conditions: S100A12, 50 nM labeled foldamer, 20 mM HEPES pH 7.5, 150 mM NaCl, 1 mM CaCl2, 0.5 mM TCEP, 0.01% Tween20, quadratic fit, mean ± SEM, three technical repeats, threshold 1 mM
T2 sequence (P80511 1-92): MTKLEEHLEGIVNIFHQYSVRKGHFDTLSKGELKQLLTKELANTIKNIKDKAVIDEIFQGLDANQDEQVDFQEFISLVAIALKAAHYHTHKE
Experimental: as §1, §2, §3

S100A8 = target: T3, S100A8 (Homo sapiens, UniProt P05109); experiment: direct fluorescence polarization (FP), S100A8; conditions: S100A8, 50 nM labeled foldamer, 20 mM HEPES pH 7.5, 150 mM NaCl, 1 mM CaCl2, 0.5 mM TCEP, 0.01% Tween20, quadratic fit, mean ± SEM, three technical repeats, threshold 1 mM
T3 sequence (P05109 1-93): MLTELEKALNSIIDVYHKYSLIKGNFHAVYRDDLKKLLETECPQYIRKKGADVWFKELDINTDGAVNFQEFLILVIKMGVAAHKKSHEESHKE
Experimental: as §1, §2, §3

S100A16 = target: T4, S100A16 (Homo sapiens, UniProt Q96FQ6); experiment: direct fluorescence polarization (FP), S100A16; conditions: S100A16, 50 nM labeled foldamer, 20 mM HEPES pH 7.5, 150 mM NaCl, 1 mM CaCl2, 0.5 mM TCEP, 0.01% Tween20, quadratic fit, mean ± SEM, three technical repeats, threshold 1 mM
T4 sequence (Q96FQ6 1-103): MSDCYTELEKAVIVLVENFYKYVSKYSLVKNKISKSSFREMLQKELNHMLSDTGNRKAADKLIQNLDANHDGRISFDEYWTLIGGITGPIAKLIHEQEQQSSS
Experimental: as §1, §2, §3

S100A13 = target: T5, S100A13 (Homo sapiens, UniProt Q99584); experiment: direct fluorescence polarization (FP), S100A13; conditions: for Kd: S100A13, 50 nM labeled foldamer, 20 mM HEPES pH 7.5, 150 mM NaCl, 1 mM CaCl2, 0.5 mM TCEP, 0.01% Tween20, quadratic fit, mean ± SEM, three technical repeats, threshold 1 mM
T5 sequence (Q99584 1-98): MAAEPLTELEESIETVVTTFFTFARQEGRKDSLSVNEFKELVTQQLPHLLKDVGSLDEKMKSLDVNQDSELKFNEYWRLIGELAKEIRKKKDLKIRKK
Experimental: as §1, §2, §3

S100A4 = S100A4 (Homo sapiens, UniProt P26447); experiment: direct fluorescence polarization (FP), S100A4; conditions: S100A4, 50 nM labeled foldamer, 20 mM HEPES pH 7.5, 150 mM NaCl, 1 mM CaCl2, 0.5 mM TCEP, 0.01% Tween20, quadratic fit, mean ± SEM, three technical repeats, threshold 1 mM
Sequence of S100A4 (P26447 whole entry): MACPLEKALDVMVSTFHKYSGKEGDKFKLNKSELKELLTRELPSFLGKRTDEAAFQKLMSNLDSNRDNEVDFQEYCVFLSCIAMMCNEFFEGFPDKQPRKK
Text: as §4, §2, §3

Row | SMILES | Kd (S100A7) | Kd (S100A2) | Kd (S100A12) | Kd (S100A8) | Kd (S100A16) | Kd (S100A13) | Kd (S100A4) | increase of the polarization upon adding S100A13 (S100A13; Fig. 3A right panel)
1 | CC[C@H](C)[C@@H](CC(=O)N[C@H]1CCCC[C@@H]1C(=O)N[C@H]1CCCC[C@@H]1C(=O)N[C@H](CC(=O)N[C@H]1CCCC[C@@H]1C(=O)NCC(=O)N[C@@H](CCCCNC(=O)c1ccc2c(c1)C1(OC2=O)c2ccc(O)cc2Oc2cc(O)ccc21)C(N)=O)Cc1ccccc1)NC(=O)[C@H]1CCCC[C@@H]1N [fIF] | > 1000 µM | 38 ± 1.5 µM | 590 ± 39 µM | 750 ± 46 µM | > 1000 µM | > 1000 µM | 93 ± 2.4 µM | 
2 | CC[C@H](C)[C@@H](CC(=O)N[C@H]1CCCC[C@@H]1C(=O)N[C@H]1CCCC[C@@H]1C(=O)N[C@H](CC(=O)N[C@H]1CCCC[C@@H]1C(=O)NCC(=O)N[C@@H](CCCCNC(=O)c1ccc2c(c1)C1(OC2=O)c2ccc(O)cc2Oc2cc(O)ccc21)C(N)=O)CC(C)C)NC(=O)[C@H]1CCCC[C@@H]1N [fIL] | > 1000 µM | 78 ± 8.7 µM | > 1000 µM | > 1000 µM | > 1000 µM | > 1000 µM | 150 ± 4.8 µM | 
3 | N=C(N)NCCC[C@@H](CC(=O)N[C@H]1CCCC[C@@H]1C(=O)N[C@H]1CCCC[C@@H]1C(=O)N[C@H](CC(=O)N[C@H]1CCCC[C@@H]1C(=O)NCC(=O)N[C@@H](CCCCNC(=O)c1ccc2c(c1)C1(OC2=O)c2ccc(O)cc2Oc2cc(O)ccc21)C(N)=O)Cc1ccccc1)NC(=O)[C@H]1CCCC[C@@H]1N [fRF] | > 1000 µM | 340 ± 21 µM | > 1000 µM | > 1000 µM | > 1000 µM | > 1000 µM | 460 ± 23 µM | 
4 | N=C(N)NCCC[C@@H](CC(=O)N[C@H]1CCCC[C@@H]1C(=O)NCC(=O)N[C@@H](CCCCNC(=O)c1ccc2c(c1)C1(OC2=O)c2ccc(O)cc2Oc2cc(O)ccc21)C(N)=O)NC(=O)[C@H]1CCCC[C@@H]1NC(=O)[C@H]1CCCC[C@@H]1NC(=O)C[C@H](CCCNC(=N)N)NC(=O)[C@H]1CCCC[C@@H]1N [fRR] | > 1000 µM | 61 ± 5.5 µM | > 1000 µM | > 1000 µM | > 1000 µM | > 1000 µM | > 1000 µM | 
5 | CC[C@H](C)[C@@H](CC(=O)N[C@H]1CCCC[C@@H]1C(=O)NCC(=O)N[C@@H](CCCCNC(=O)c1ccc2c(c1)C1(OC2=O)c2ccc(O)cc2Oc2cc(O)ccc21)C(N)=O)NC(=O)[C@H]1CCCC[C@@H]1NC(=O)[C@H]1CCCC[C@@H]1NC(=O)C[C@@H](NC(=O)[C@H]1CCCC[C@@H]1N)[C@@H](C)O [fTI] | > 1000 µM | > 1000 µM | > 1000 µM | > 1000 µM | > 1000 µM | > 1000 µM | > 1000 µM | 
6 | CSCC[C@@H](CC(=O)N[C@H]1CCCC[C@@H]1C(=O)NCC(=O)N[C@@H](CCCCNC(=O)c1ccc2c(c1)C1(OC2=O)c2ccc(O)cc2Oc2cc(O)ccc21)C(N)=O)NC(=O)[C@H]1CCCC[C@@H]1NC(=O)[C@H]1CCCC[C@@H]1NC(=O)C[C@@H](NC(=O)[C@H]1CCCC[C@@H]1N)[C@@H](C)O [fTM] | > 1000 µM | > 1000 µM | > 1000 µM | > 1000 µM | > 1000 µM | > 1000 µM | > 1000 µM | 
7 | C[C@@H](O)[C@@H](CC(=O)N[C@H]1CCCC[C@@H]1C(=O)N[C@H]1CCCC[C@@H]1C(=O)N[C@H](CC(=O)N[C@H]1CCCC[C@@H]1C(=O)NCC(=O)N[C@@H](CCCCNC(=O)c1ccc2c(c1)C1(OC2=O)c2ccc(O)cc2Oc2cc(O)ccc21)C(N)=O)Cc1c[nH]c2ccccc12)NC(=O)[C@H]1CCCC[C@@H]1N [fTW] | > 1000 µM |  | > 1000 µM | 770 ± 180 µM | > 1000 µM | > 1000 µM | 180 ± 46 µM | 
8 | CC(C)C[C@@H](CC(=O)N[C@H]1CCCC[C@@H]1C(=O)NCC(=O)N[C@@H](CCCCNC(=O)c1ccc2c(c1)C1(OC2=O)c2ccc(O)cc2Oc2cc(O)ccc21)C(N)=O)NC(=O)[C@H]1CCCC[C@@H]1NC(=O)[C@H]1CCCC[C@@H]1NC(=O)C[C@@H](NC(=O)[C@H]1CCCC[C@@H]1N)C(C)C [fVL] | > 1000 µM | 210 ± 110 µM | > 1000 µM | > 1000 µM | > 1000 µM | > 1000 µM | 210 ± 8.7 µM | 
9 | CC(C)C[C@@H](CC(=O)N[C@H]1CCCC[C@@H]1C(=O)NCC(=O)N[C@@H](CCCCNC(=O)c1ccc2c(c1)C1(OC2=O)c2ccc(O)cc2Oc2cc(O)ccc21)C(N)=O)NC(=O)[C@H]1CCCC[C@@H]1NC(=O)[C@H]1CCCC[C@@H]1NC(=O)C[C@H](Cc1c[nH]c2ccccc12)NC(=O)[C@H]1CCCC[C@@H]1N [fWL] | 23 ± 1.5 µM | 11 ± 0.39 µM | 254 ± 113 µM | 74 ± 3.5 µM | 304 ± 131 µM | > 1000 µM | 46 ± 1.6 µM | 
10 | NC(=O)[C@H](CCCCNC(=O)c1ccc2c(c1)C1(OC2=O)c2ccc(O)cc2Oc2cc(O)ccc21)NC(=O)CNC(=O)[C@H]1CCCC[C@@H]1NC(=O)C[C@H](Cc1c[nH]c2ccccc12)NC(=O)[C@H]1CCCC[C@@H]1NC(=O)[C@H]1CCCC[C@@H]1NC(=O)C[C@H](Cc1c[nH]c2ccccc12)NC(=O)[C@H]1CCCC[C@@H]1N [fWW] | > 1000 µM | 65 ± 1.2 µM | > 1000 µM | > 1000 µM | > 1000 µM | > 1000 µM |  | 
11 | NC(=O)[C@H](CCCCNC(=O)c1ccc2c(c1)C1(OC2=O)c2ccc(O)cc2Oc2cc(O)ccc21)NC(=O)CNC(=O)[C@H]1CCCC[C@@H]1NC(=O)C[C@H](Cc1ccccc1)NC(=O)[C@H]1CCCC[C@@H]1NC(=O)[C@H]1CCCC[C@@H]1NC(=O)C[C@H](Cc1ccc(O)cc1)NC(=O)[C@H]1CCCC[C@@H]1N [fYF] | > 1000 µM | 26 ± 2.1 µM | > 1000 µM | 180 ± 42 µM | > 1000 µM | > 1000 µM | 113 ± 5.2 µM | only a minor linear increase of the polarization
